Source: ChEMBL document CHEMBL4825761, “Utilization of Metabolite Identification and Structural Data to Guide Design of Low-Dose IDO1 Inhibitors” (ACS Med Chem Lett, 2021)

What was measured:
[1] = Plasma concentration in CD1 mouse xenografted with mouse CT26 cells overexpressing human IDO1 at 3 mg/kg, po administered as single dose measured after 4 hrs by mass spectrometry; format: ADME, organism-based
[2] = Plasma concentration in CD1 mouse xenografted with mouse CT26 cells overexpressing human IDO1 at 3 mg/kg, po administered as single dose measured after 16 hrs by mass spectrometry; format: ADME, organism-based; conditions: in vivo, BLD = below limit of detection
[3] = Plasma concentration in CD1 mouse xenografted with mouse CT26 cells overexpressing human IDO1 at 3 mg/kg, po administered as single dose measured after 8 hrs by mass spectrometry; format: ADME, organism-based
[4] = Plasma concentration in CD1 mouse xenografted with mouse CT26 cells overexpressing human IDO1 at 3 mg/kg, po administered as single dose measured after 2 hrs by mass spectrometry; format: ADME, organism-based
[5] = Oral bioavailability in Wistar Han rat by LC-MS/MS analysis; format: ADME, organism-based; conditions: in vivo
[6] = Clearance in Wistar Han rat by LC-MS/MS analysis; format: ADME; conditions: in vivo
[7] = Oral bioavailability in dog; format: ADME, organism-based, Canis lupus familiaris; conditions: in vivo
[8] = Volume of distribution in Wistar Han rat by LC-MS/MS analysis; format: ADME; conditions: in vivo
[9] = Lipophilicity, logD of the compound by HPLC analysis; format: physicochemical
[10] = Unbound clearance in dog; format: ADME, Canis lupus familiaris; conditions: in vivo
[11] = Half life in dog; format: ADME, Canis lupus familiaris; conditions: in vivo
[12] = Unbound clearance in Wistar Han rat by LC-MS/MS analysis; format: ADME; conditions: in vivo
[13] = Clearance in dog; format: ADME, Canis lupus familiaris; conditions: in vivo
[14] = Half life in Wistar Han rat by LC-MS/MS analysis; format: ADME; conditions: in vivo
[15] = molecular target: T1, Indoleamine 2,3-dioxygenase 1 (Homo sapiens, UniProt P14902); assay: Inhibition of IDO1 in IFNgamma/LPS stimulated human whole blood assessed as reduction in kynurenine production using tryptophan as substrate preincubated with compound for 15 mins followed by incubation with IFNgamma/LPS for overnight by LC/MS/MS analysis; format: tissue-based
[16] = molecular target: T1, Indoleamine 2,3-dioxygenase 1; assay: Inhibition of IDO1 in human HeLa cells; format: cell-based
Target sequence in this assay (P14902 whole entry): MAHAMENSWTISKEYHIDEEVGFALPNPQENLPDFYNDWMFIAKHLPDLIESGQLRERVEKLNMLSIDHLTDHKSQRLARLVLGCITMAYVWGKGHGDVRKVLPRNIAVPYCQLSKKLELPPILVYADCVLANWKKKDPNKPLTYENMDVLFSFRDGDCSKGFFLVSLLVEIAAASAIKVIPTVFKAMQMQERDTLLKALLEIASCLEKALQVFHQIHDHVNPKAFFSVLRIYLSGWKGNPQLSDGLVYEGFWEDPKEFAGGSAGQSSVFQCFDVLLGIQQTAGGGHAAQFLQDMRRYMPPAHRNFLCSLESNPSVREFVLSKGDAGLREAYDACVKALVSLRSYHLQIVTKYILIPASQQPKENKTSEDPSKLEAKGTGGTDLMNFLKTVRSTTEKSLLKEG

[17] = Volume of distribution in dog; format: ADME, Canis lupus familiaris; conditions: in vivo

Cc1nccc(N2CCCc3nc(C4(NC(=O)c5ccc(F)cc5)CC4)ccc32)n1
concentration at 4 h [1]: 90 nM
Cp [2]: Bld
concentration at 8 h [3]: 30 nM
concentration at 2 h [4]: 210 nM

Cc1nccc(N2C[C@@H]3C[C@@H]3c3nc(C4(NC(=O)c5ccc(F)cc5)CC4)ccc32)n1
bioavailability [5]: 46%
clearance [6]: 16.7 mL/min/kg
bioavailability [7]: 46%
Vd [8]: 1.4 L/kg
logD [9]: 2.4
CL free [10]: 26 mL/min/kg
half-life [11]: 9 h
CL free [12]: 307 mL/min/kg
clearance [13]: 12.3 mL/min/kg
half-life [14]: 1.9 h
IC50 [15]: 16 nM
fIC50 [15]: 0.8 nM
IC50 [16]: 2 nM
Vd [17]: 1.3 L/kg
